Measurements as given in patent publication US20090317741A1, “COMPOUND, ACID GENERATOR, RESIST COMPOSITION AND METHOD OF FORMING RESIST PATTERN” (Tokyo Ohka Kogyo Co., Ltd., priority 2006, published 2009).

Method: The solution of propylene glycol monomethyl ether acetate (PGMEA), propylene glycol monomethyl ether (PGME), or ethyl lactate (EL) with each compound described above was prepared, while changing the concentration. After the preparation, each solution was stirred, and then the concentration in which each acid generator was completely dissolved was measured.

Row | Solubility in EL | Solubility in PGME | Solubility in PGMEA | Compound
1 | 7 % by weight | >20 % by weight | 5 % by weight | CC(C)(C)c1ccc(-[s+]2c3ccccc3c3ccccc32)cc1 [Compound (b1-21)]
2 | >20 % by weight | >20 % by weight | 15 % by weight | CCC(C)(C)c1ccc(-[s+]2c3ccccc3c3ccccc32)cc1 [Compound (b1-24)]
